Experimental data published in ChEMBL document CHEMBL1201862, “PubChem BioAssay data set” (2004).
Activity calls are given as the source filed them.

Key:
[1] = target: Nonstructural protein 1 (Influenza A virus, UniProt Q194T2); type: functional, Influenza A virus (A/California/07/2009(H1N1))
[2] = target: 1-phosphatidylinositol 4,5-bisphosphate phosphodiesterase gamma-1 (Homo sapiens, UniProt P19174); test: Counterscreen for inhibitors of phospholipase C isozymes (PLC-B3): Fluorescence-based biochemical high throughput dose response assay to identify inhibitors of phospholipase C isozymes (PLC-gamma1).
1-phosphatidylinositol 4,5-bisphosphate phosphodiesterase gamma-1, sequence (P19174 whole entry): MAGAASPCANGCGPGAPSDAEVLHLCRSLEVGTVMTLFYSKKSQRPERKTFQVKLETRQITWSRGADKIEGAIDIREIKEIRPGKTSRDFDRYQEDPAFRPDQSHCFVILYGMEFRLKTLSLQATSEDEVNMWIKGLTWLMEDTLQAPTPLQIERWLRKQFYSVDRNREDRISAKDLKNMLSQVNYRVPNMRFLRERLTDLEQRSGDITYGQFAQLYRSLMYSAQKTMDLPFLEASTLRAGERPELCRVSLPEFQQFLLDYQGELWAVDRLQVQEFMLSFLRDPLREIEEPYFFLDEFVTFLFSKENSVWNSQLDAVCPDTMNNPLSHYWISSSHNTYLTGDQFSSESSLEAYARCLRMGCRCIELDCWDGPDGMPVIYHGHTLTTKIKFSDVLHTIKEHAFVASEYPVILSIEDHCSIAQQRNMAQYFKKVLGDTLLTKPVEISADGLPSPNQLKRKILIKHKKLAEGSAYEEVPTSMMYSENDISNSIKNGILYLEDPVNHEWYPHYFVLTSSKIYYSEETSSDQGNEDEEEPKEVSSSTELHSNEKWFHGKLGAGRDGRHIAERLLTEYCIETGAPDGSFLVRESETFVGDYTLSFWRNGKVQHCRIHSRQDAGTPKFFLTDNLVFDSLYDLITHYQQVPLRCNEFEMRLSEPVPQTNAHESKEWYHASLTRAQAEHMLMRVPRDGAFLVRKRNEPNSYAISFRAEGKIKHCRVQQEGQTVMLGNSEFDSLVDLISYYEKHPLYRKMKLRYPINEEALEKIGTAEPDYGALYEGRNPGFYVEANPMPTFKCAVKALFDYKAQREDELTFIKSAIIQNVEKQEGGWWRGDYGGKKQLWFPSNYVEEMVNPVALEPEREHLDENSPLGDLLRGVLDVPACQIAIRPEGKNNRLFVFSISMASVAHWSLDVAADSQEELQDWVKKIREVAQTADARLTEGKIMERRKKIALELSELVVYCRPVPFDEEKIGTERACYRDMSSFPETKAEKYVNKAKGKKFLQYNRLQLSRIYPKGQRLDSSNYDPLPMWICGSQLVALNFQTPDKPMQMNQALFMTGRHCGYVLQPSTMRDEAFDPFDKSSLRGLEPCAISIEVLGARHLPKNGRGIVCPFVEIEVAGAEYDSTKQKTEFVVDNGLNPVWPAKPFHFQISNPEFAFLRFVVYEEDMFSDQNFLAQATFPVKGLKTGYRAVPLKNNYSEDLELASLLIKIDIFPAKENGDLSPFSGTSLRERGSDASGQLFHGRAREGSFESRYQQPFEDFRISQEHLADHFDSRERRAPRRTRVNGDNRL

[3] = target: 1-phosphatidylinositol 4,5-bisphosphate phosphodiesterase beta-3 (Homo sapiens, UniProt Q01970); test: Fluorescence-based biochemical high throughput dose response assay to identify inhibitors of phospholipase C isozymes (PLC-B3).
1-phosphatidylinositol 4,5-bisphosphate phosphodiesterase beta-3, sequence (Q01970 whole entry): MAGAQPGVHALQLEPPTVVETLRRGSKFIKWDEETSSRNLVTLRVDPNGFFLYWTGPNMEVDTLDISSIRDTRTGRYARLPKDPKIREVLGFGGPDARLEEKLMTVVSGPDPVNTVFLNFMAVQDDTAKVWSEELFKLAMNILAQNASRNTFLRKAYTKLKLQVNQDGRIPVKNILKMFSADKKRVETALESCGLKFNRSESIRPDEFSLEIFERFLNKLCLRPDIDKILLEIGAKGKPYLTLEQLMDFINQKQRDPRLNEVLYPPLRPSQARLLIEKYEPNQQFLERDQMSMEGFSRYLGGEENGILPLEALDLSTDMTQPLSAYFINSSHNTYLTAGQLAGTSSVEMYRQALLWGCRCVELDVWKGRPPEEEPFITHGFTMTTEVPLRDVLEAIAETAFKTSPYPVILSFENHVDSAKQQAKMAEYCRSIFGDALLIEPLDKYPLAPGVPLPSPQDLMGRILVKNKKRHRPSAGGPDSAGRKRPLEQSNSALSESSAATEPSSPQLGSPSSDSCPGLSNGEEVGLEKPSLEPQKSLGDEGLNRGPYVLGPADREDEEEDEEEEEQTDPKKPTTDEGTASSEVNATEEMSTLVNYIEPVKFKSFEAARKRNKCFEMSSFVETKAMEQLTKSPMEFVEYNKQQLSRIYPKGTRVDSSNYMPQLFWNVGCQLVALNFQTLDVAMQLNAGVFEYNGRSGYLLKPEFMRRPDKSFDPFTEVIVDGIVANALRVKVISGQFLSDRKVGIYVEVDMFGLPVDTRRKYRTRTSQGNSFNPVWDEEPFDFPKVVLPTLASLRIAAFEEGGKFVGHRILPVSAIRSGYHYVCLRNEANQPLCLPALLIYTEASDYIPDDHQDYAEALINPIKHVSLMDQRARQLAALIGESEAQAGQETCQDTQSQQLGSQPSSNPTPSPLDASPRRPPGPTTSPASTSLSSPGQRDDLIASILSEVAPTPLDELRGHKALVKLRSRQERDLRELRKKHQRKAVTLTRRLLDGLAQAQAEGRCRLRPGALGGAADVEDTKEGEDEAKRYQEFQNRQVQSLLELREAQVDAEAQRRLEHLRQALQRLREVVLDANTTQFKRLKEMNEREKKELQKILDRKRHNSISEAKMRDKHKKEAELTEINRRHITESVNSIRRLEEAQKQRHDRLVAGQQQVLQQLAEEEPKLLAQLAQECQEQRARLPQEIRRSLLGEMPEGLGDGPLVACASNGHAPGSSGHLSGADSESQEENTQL

[4] = A549 cell cytotoxicity, dose response, cytotoxicity control, plate reader, cherry-pick, antagonist series (AID 743412); type: functional, cell-based
[5] = toxicity toward HepG2 liver cells – cell-based, plate reader, cherry-pick, antagonist series, cytotoxicity control, dose response (AID 743416); type: functional
[6] = blockers of bursicon-stimulated LGR2 cAMP reporter – cell-based, HEK293, CRE-luciferase reporter, cherry pick, set 2, dose response (AID 743343); type: functional;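 also: transfected cells were stimulated with diluted bursicon conditioned medium after compound addition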
[7] = viability loss in HepG2 hepatoma cells – cell-based, ATP luminescence, cherry-pick, activator set 2, cytotoxicity control, dose response (AID 1053143); type: functional
[8] = blockade of melanocortin 4 receptor signaling – cell-based, plate reader, cherry pick, counter-screen for LGR2 antagonist project, dose response (AID 743444); type: functional;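 also: transfected HEK 293 cells stimulated with alpha-MSH peptide; potency of inhibitors of the alpha-MSH evoked signal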
[9] = viability loss in HEK293 cells – cell-based, plate reader, cherry-picked samples, cytotoxicity control, dose response (AID 743446); type: functional
[10] = target: Paired box protein Pax-8 (Homo sapiens, UniProt Q06710); test: PAX8 transcriptional activity inhibition in RMG-I – RMG-I cells, luciferase, cherry-pick, dose response (AID 687027); type: functional, cell-based;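 also: luciferase reporter driven by Pax8 target thyroperoxidase promoter measured by SteadyGlo luminescence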
Paired box protein Pax-8, sequence (Q06710 whole entry): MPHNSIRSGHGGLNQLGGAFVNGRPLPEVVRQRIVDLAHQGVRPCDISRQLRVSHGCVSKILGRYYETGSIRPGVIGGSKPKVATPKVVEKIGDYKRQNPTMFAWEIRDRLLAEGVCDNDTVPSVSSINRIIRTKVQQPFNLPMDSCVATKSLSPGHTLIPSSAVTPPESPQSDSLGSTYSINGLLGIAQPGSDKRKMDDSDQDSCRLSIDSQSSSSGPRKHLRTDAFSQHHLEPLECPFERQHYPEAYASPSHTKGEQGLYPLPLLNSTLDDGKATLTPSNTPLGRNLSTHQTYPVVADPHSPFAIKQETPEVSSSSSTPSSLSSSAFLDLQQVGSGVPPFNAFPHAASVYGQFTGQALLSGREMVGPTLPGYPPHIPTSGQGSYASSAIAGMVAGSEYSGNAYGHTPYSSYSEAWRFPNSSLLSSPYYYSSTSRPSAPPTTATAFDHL

[11] = IGROV1 cell killing – plate reader, dry powder samples, PAX8 inhibitor project, dose response (AID 743043); type: functional, cell-based; details: IGROV-1
[12] = OVCAR8 cell viability loss – plate reader, dry powder samples, PAX8 project, dose response (AID 743197); type: functional, cell-based; details: OVCAR-8
[13] = loss of viability in HepG2 cells – cell-based, CellTiter-Glo, cherry-picked, cytotoxicity control for Shn3 inhibitor project, dose response (AID 624134); type: functional
[14] = non-specific 3'UTR reporter inhibition in Clone20-Shn3RL – cell-based, Renilla luciferase, cherry-picked, counter-screen for Shn3 inhibitor project, dose response (AID 624133); type: functional
[15] = target: Protein Wnt-3a (Mus musculus, UniProt P27467); test: antagonism of Wnt3a pathway luciferase reporter – Wnt-LIGHT cells, luminescence, selectivity assay for Gli-SUFU antagonist project, dose response (AID 651570); type: functional; details: read-out: IC50_Mean;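 also: Wnt-LIGHT reporter cells stimulated with conditioned medium from Wnt3a-producing cells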
Protein Wnt-3a, sequence (P27467 whole entry): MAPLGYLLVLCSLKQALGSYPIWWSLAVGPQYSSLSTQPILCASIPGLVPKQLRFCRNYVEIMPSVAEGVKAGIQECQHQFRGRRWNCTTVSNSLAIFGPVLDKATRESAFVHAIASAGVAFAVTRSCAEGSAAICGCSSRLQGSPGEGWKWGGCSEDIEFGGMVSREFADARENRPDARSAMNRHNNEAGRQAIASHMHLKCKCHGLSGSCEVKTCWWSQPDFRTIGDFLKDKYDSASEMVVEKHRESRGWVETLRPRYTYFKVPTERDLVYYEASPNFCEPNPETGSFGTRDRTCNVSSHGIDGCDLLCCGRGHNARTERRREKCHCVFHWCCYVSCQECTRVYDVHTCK

[16] = target: COUP transcription factor 2 (Homo sapiens, UniProt P24468); test: Luminescence-based cell-based high throughput dose response assay to identify inhibitors of COUP-TFII (NR2F2).; type: functional;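 also: HEK293 cells transiently cotransfected with COUP-TFII expression vector and reporter; luciferase reporter luminescence driven by COUP-TFII from the pX2-168 reporter plasmid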
COUP transcription factor 2, sequence (P24468 whole entry): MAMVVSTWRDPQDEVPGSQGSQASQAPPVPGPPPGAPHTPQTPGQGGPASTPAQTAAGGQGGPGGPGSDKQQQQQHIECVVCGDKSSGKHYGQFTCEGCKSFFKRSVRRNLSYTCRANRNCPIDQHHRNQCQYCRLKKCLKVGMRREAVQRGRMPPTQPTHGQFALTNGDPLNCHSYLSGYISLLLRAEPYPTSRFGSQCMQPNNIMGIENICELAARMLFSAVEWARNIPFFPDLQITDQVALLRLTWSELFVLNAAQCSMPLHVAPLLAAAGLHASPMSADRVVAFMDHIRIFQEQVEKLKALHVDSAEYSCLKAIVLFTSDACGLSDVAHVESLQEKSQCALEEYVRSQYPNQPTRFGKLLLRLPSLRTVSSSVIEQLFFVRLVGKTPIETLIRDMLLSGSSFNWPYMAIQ

Nonstructural protein 1, sequence (Q194T2 whole entry): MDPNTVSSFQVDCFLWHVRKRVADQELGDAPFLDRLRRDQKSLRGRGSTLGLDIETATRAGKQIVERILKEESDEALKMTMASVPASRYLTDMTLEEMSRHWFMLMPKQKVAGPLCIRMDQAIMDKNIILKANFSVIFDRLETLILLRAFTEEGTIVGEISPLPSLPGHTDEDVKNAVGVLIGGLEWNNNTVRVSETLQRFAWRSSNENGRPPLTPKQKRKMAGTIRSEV

Cc1ccc(S(=O)(=O)NC2=C(N3CCN(c4ccccc4F)CC3)C(=O)c3ccccc3C2=O)cc1
IC50 [1]: 32.5 µM (active) | IC50 [2]: > 122 µM (inactive) | IC50 [3]: > 122 µM (inactive)

c1csc(-c2nc(CN3CCSCC3)cs2)c1
AC50 [4]: > 52 µM (inactive) | AC50 [5]: > 52 µM (inactive) | AC50 [6]: 18.8 µM (active) | AC50 [7]: 26 µM (active) | AC50 [8]: 14.8 µM (active) | AC50 [9]: > 52 µM (inactive)

C[C@H]1CCCCO[C@H](CN(C)C(=O)NC2CCCCC2)[C@@H](C)CN([C@@H](C)CO)C(=O)c2cc(NC(=O)Nc3ccc(C(F)(F)F)cc3)ccc2O1
AC50 [10]: 8.03 µM (active) | AC50 [11]: 47.5 µM (active) | AC50 [12]: 67.2 µM (active)

CC[C@@H](O)C[C@H]1CCC[C@@]2(C[C@@H]3OC(=O)/C=C/[C@@](C)(O)[C@@H](O)[C@H](C)[C@@H](O)[C@H](OC4CCC(N(C)C)C(C)O4)[C@@H](O)[C@](C)(O)CCCCC/C=C/[C@@H]4CC(C)(C)O[C@@]4(O)C[C@H](O2)[C@H]3C)O1 (stereo partly specified)
AC50 [13]: 20.1 µM (active) | AC50 [14]: < 0.26 µM (active) | IC50 [15]: 0.0061 µM (active) | IC50 [16]: > 0.013 µM (active)
